What all share (assay type): functional
Assay [1] in a line: DPPH radical scavenging activity at 1.0 mM by ESR. In general terms: The DPPH test is a chemical assay of radical scavenging.
A short description of assay [2]: Galvinoxyl radical scavenging activity by ESR. The arrangement: concentration or dose not given beside the values.
A short description of assay [3]: Hydroxyl radical scavenging activity at 0.6 mM by ESR.
A short description of assay [4]: Hydroxyl radical scavenging activity assessed as Trolox equivalent antioxidant capacity.
A short description of assay [5]: Hydroxyl radical scavenging activity at 1.0 mM by ESR.
Assay [6] in a line: DPPH radical scavenging activity at 2.0 mM by ESR.

Each structure is given as a SMILES string.

On to `CC1C=CC(CO)c2c(O)c3c(c(O)c21)C(C)(C)C=CC3=O` (stereo unspecified), for which the Activity in assay [1] was determined as 4%; in assay [2], 0%; in assay [3], 47.5%; in assay [5], 72%. Further, the Ratio in assay [4] was found to be 6.41.

As for `CC1C=CC(CO)c2c(O)c3c(c(O)c21)C(=O)C=CC3(C)C` (stereo unspecified), the Activity in assay [6] was 93%; in assay [1] it was 4%; in assay [2], 0%; in assay [3], 47.5%; in assay [5] it was 71.3%. Besides, the Ratio in assay [4] was 5.1.

As for `COc1ccc(O)c2c1C(=O)C=CC2(C)C`, the Activity in assay [1] was determined as 4%; in assay [2], 0%; in assay [3], 47.5%; in assay [5], 48.2%. The Ratio in assay [4] worked out at 3.42.

For `COc1ccc(O)c2c1C(C)(C)C=CC2=O`, the Activity in assay [1] turned out to be 4%; in assay [2], 0%; in assay [3], 47.5%; in assay [5] it was 47.5%. Besides, the Ratio in assay [4] stood at 1.56.

Take `CC1(C)C=CC(=O)c2c(O)c3c(c(O)c21)CC=CC3`: the Activity in assay [1] was 4%; in assay [2], 0%; in assay [3] it was 47.5%; in assay [5], 68.2%. Moreover, in assay [4], the Ratio was 5.86.

For `CC1(C)C=CC(=O)c2c(O)ccc(O)c21`, the Activity in assay [1] was 4%; in assay [2] it was 0%; in assay [3], 47.5%; in assay [5], 50%. The Ratio in assay [4] is 3.76.

These data come from ChEMBL document CHEMBL1140472, “Antioxidant properties and free radical-scavenging reactivity of a family of hydroxynaphthalenones and dihydroxyanthracenones” (Bioorg Med Chem, 2007).
